Results taken from patent publication US20120213758A1, “BIARYL PDE4 INHIBITORS FOR TREATING PULMONARY AND CARDIOVASCULAR DISORDERS” (DeCODE Genetics enf, priority 2007, published 2012).
Where a name gives a salt, the structure may show the parent alone. Read-outs that look alike come from different tables or passages of the source.

Assays:
hPDE4B = hPDE4B (Homo sapiens, UniProt Q07343); test: In-vitro real-time enzyme-coupled spectrophotometric assay for PDE4 enzymes (hPDE4B)
hPDE4D = hPDE4D (Homo sapiens, UniProt Q08499); test: In-vitro real-time enzyme-coupled spectrophotometric assay for PDE4 enzymes (hPDE4D)
Chain of hPDE4D (Q08499 whole entry): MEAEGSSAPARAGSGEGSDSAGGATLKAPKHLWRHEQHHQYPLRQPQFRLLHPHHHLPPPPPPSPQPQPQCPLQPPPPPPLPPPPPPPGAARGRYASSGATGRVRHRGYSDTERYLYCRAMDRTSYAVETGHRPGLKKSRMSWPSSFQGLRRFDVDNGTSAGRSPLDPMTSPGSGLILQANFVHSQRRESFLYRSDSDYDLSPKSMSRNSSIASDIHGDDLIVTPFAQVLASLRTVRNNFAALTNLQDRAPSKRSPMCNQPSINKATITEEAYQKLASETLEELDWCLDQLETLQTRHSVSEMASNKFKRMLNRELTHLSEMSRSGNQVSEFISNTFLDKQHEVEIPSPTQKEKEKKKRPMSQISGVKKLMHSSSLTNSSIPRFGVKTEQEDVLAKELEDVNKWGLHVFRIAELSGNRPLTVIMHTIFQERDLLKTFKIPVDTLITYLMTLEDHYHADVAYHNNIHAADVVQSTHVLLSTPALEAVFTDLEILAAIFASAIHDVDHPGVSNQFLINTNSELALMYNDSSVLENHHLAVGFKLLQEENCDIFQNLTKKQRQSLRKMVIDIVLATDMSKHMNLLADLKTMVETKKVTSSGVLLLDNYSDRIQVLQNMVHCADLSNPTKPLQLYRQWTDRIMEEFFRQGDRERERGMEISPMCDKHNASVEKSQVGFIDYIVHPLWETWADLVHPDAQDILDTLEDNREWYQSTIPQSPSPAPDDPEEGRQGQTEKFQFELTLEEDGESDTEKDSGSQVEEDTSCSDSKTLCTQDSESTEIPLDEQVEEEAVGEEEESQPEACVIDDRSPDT

Chain of hPDE4B (Q07343 whole entry): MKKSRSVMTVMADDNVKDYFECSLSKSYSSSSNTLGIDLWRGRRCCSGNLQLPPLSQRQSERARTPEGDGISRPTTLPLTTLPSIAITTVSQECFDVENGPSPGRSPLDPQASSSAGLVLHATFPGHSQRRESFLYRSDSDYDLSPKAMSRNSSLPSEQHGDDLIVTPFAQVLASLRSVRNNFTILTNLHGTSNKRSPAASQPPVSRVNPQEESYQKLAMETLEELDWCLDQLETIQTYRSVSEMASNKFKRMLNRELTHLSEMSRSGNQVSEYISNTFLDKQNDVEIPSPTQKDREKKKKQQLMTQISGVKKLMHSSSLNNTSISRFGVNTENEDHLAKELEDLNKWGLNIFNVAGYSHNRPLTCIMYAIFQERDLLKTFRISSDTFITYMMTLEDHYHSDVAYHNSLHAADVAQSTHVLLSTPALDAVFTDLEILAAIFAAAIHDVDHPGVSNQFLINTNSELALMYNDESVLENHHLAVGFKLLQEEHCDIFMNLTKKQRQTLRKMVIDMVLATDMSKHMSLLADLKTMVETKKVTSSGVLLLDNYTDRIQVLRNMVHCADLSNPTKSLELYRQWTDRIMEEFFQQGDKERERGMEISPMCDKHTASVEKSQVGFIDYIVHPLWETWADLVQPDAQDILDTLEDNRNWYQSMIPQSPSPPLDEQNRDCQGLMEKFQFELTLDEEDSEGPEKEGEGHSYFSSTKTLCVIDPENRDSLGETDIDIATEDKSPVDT

| SMILES | IC50 (hPDE4B) [µM] | IC50 (hPDE4D) [µM] | IC50 (hPDE4B; read-out: hPDE4B activity, enzyme-coupled NADH assay, absorbance at 340 nm) [µM] | IC50 (hPDE4D; read-out: hPDE4D activity, enzyme-coupled NADH assay, absorbance at 340 nm) [µM] |
| --- | --- | --- | --- | --- |
| COc1ccc(Cc2nnc(NC(=O)NCCCC(=O)O)s2)c(F)c1-c1cccc(Cl)c1 [Example A-031, 4-{3-[5-(3′-Chloro-2-fluoro-6-methoxy-biphenyl-3-ylmethyl)-[1,3,4]thiadiazol-2-yl]-ureido}-butyric acid] | 5 to 20 | < 5 |  |  |
| COc1ccc(Cc2ccc(NC(=O)NCCC(=O)O)nc2)c(F)c1-c1cccc(Cl)c1 [Example A-032] | 5 to 20 | < 5 |  |  |
| COc1ccc(Cc2ccc(C(=O)N3CCC(C(=O)O)CC3)nc2)c(F)c1-c1cccc(Cl)c1 [Example A-034, 1-[5-(3′-Chloro-2-fluoro-6-methoxy-biphenyl-3-ylmethyl)-pyridine-2-carbonyl]-piperidine-4-carboxylic acid] | 20 to 40 | < 5 |  |  |
| COc1ccc(Cc2ccc(NCC(=O)O)nc2)c(F)c1-c1cccc(Cl)c1 [Example A-035, [5-(3′-chloro-2-fluoro-6-methoxy-biphenyl-3-ylmethyl)-pyridin-2-ylamino]-acetic acid] | < 5 | < 5 |  |  |
| COc1ccc(Cc2ccc(O)nc2)c(F)c1-c1cccc(Cl)c1 [Example A-036] | < 5 | < 5 |  |  |
| COc1ccc(Cc2ccc(N(CC(=O)O)C(C)=O)nc2)c(F)c1-c1cccc(Cl)c1 [Example A-037, {acetyl-[5-(3′-chloro-2-fluoro-6-methoxy-biphenyl-3-ylmethyl)-pyridin-2-yl]-amino}-acetic acid] | < 5 | < 5 |  |  |
| COc1ccc(Cc2ccc(C(=O)N3CCC(C(=O)O)C3)nc2)c(F)c1-c1cccc(Cl)c1 (stereo not shown) [Example A-038, 1-[5-(3′-Chloro-2-fluoro-6-methoxy-biphenyl-3-ylmethyl)-pyridine-2-carbonyl]-pyrrolidine-3-carboxylic acid] | < 5 | < 5 |  |  |
| COc1ccc(Cc2cnc(N3CCCC3C(=O)O)nc2)c(F)c1-c1cccc(Cl)c1 (stereo not shown) [Example A-040, 1-[5-(3′-Chloro-2-fluoro-6-methoxy-biphenyl-3-ylmethyl)-pyrimidin-2-yl]-pyrrolidine-2-carboxylic acid] | < 5 | < 5 |  |  |
| COc1ccc(Cc2ccc(-c3nnn[nH]3)nc2)c(F)c1-c1cccc(Cl)c1 [Example A-042, 5-(3′-Chloro-2-fluoro-6-methoxy-biphenyl-3-ylmethyl)-2-(1H-tetrazol-5-yl)-pyridine] | < 5 | < 5 |  |  |
| COc1ccc(Cc2ccc3nc(C(=O)O)cn3c2)c(F)c1-c1cccc(Cl)c1 [Example A-043, 6-(3′-Chloro-2-fluoro-6-methoxy-biphenyl-3-ylmethyl)-imidazo[1,2-a]pyridine-2-carboxylic acid] | 5 to 20 | < 5 |  |  |
| COc1ccc(C(O)c2ccc(NC(=O)NNC(C)=O)cc2)c(F)c1-c1cccc(Cl)c1 (stereo not shown) [Example A-065, 1-acetic amido-3-{4-[(3′-chloro-2-fluoro-6-methoxy-biphenyl-3-yl)-hydroxy-deutero-methyl]-phenyl}-urea] |  |  | 5 to 20 | < 5 |

Second part, led by results:

| IC50 (hPDE4B) [µM] | IC50 (hPDE4D) [µM] | SMILES | IC50 (hPDE4B; read-out: hPDE4B activity, enzyme-coupled NADH assay, absorbance at 340 nm) [µM] | IC50 (hPDE4D; read-out: hPDE4D activity, enzyme-coupled NADH assay, absorbance at 340 nm) [µM] |
| --- | --- | --- | --- | --- |
| 20 to 40 | < 5 | COc1ccc(Cc2cnc(N3CCC(C(=O)O)C3)nc2)c(F)c1-c1cccc(Cl)c1 (stereo not shown) [Example A-044, 1-[5-(3′-Chloro-2-fluoro-6-methoxy-biphenyl-3-ylmethyl)-pyrimidin-2-yl]-pyrrolidine-3-carboxylic acid] |  |  |
| < 5 | < 5 | COc1ccc(Cc2cnc(N(C)CC(=O)O)nc2)c(F)c1-c1cccc(Cl)c1 [Example A-047, {[5-(3′-Chloro-2-fluoro-6-methoxy-biphenyl-3-ylmethyl)-pyrimidin-2-yl]-methyl-amino}-acetic acid] |  |  |
| < 5 | < 5 | CCOC(=O)C(=O)NCc1ccc(Cc2ccc(OC)c(-c3cccc(Cl)c3)c2F)cn1 [Example A-048, N-[5-(3′-Chloro-2-fluoro-6-methoxy-biphenyl-3-ylmethyl)-pyridin-2-ylmethyl]-oxalamic acid ethyl ester] |  |  |
| < 5 | < 5 | COc1ccc(Cc2cnc(N3CCC3C(=O)O)nc2)c(F)c1-c1cccc(Cl)c1 (stereo not shown) [Example A-049, 1-[5-(3′-Chloro-2-fluoro-6-methoxy-biphenyl-3-ylmethyl)-pyrimidin-2-yl]-azetidine-2-carboxylic acid] |  |  |
| < 5 | < 5 | COc1ccc(Cc2ccc(C(=O)NS(C)(=O)=O)nc2)c(F)c1-c1cccc(Cl)c1 [Example A-050, N-[5-(3′-Chloro-2-fluoro-6-methoxy-biphenyl-3-ylmethyl)-pyridine-2-carbonyl]-methanesulfonamide] |  |  |
| < 5 | < 5 | COc1ccc(Cc2ccc3cnc(C(=O)O)n3c2)c(F)c1-c1cccc(Cl)c1 [Example A-051, 6-(3′-Chloro-2-fluoro-6-methoxy-biphenyl-3-ylmethyl)-imidazo[1,5-a]pyridine-3-carboxylic acid hydrochloride] |  |  |
| 5 to 20 | < 5 | COc1ccc(Cc2cnc(N3CC(C(=O)O)C3)nc2)c(F)c1-c1cccc(Cl)c1 [Example A-053, 1-[5-(3′-Chloro-2-fluoro-6-methoxy-biphenyl-3-ylmethyl)-pyrimidin-2-yl]-azetidine-3-carboxylic acid] |  |  |
| < 5 | < 5 | COc1ccc(Cc2ccc(N3CCC3C(=O)O)nc2)c(F)c1-c1cccc(Cl)c1 (stereo not shown) [Example A-054] |  |  |
| < 5 | < 5 | COc1ccc(Cc2ccc(N(CC(=O)O)C(N)=O)nc2)c(F)c1-c1cccc(Cl)c1 [Example A-057, {1-[5-(3′-chloro-2-fluoro-6-methoxy-biphenyl-3-ylmethyl)-pyridin-2-yl]-ureido}-acetic acid] |  |  |
| 20 to 40 | 5 to 20 | COc1ccc(Cc2nnn[nH]2)c(F)c1-c1cccc(Cl)c1 [Example A-058, 5-(3′-Chloro-2-fluoro-6-methoxy-biphenyl-3-ylmethyl)-1H-tetrazole] |  |  |
| 5 to 20 | < 5 | COc1ccc(Cn2cnc(C(=O)O)c2)c(F)c1-c1cccc(Cl)c1 [Example A-059, 1-(3′-Chloro-2-fluoro-6-methoxy-biphenyl-3-ylmethyl)-1H-imidazole-4-carboxylic acid] |  |  |
| 5 to 20 | < 5 | COc1ccc(Cn2cncc2C(=O)O)c(F)c1-c1cccc(Cl)c1 [Example A-060, 3-(3′-Chloro-2-fluoro-6-methoxy-biphenyl-3-ylmethyl)-3H-imidazole-4-carboxylic acid] |  |  |
| 5 to 20 | < 5 | COc1ccc(Cc2ccc(N3CC[C@@H]3C(=O)O)nc2)c(F)c1-c1cccc(Cl)c1 [Example A-061, (R)-1-[5-(3′-chloro-2-fluoro-6-methoxy-biphenyl-3-ylmethyl)-pyridin-2-yl]-azetidine-2-carboxylic acid] |  |  |
| < 5 | < 5 | COc1ccc(Cc2ccc(N3CCC[C@H]3C(=O)O)nc2)c(F)c1-c1cccc(Cl)c1 [Example A-063, (S)-1-[5-(3′-chloro-2-fluoro-6-methoxy-biphenyl-3-ylmethyl)-pyridin-2-yl]-pyrrolidine-2-carboxylic acid] |  |  |
| < 5 | < 5 | COc1ccc(Cc2ccc(N3CC[C@H]3C(=O)O)nc2)c(F)c1-c1cccc(Cl)c1 [Example A-066, (S)-1-[5-(3′-chloro-2-fluoro-6-methoxy-biphenyl-3-ylmethyl)-pyridin-2-yl]-azetidine-2-carboxylic acid] |  |  |
